“Also recorded” adds a separate entry of the source.
Key:
glioblastoma = experiment: Tumor lysis by CAR neutrophils with inhibitors; type: cell-based; settings: for glioblastoma viability: co-incubation with CAR neutrophils
TGFβ = experiment: hPSC differentiation: endothelial-to-hematopoietic transition; type: cell-based, human; settings: 10 μM from day 4
Experimental: H9 was obtained from WiCell and maintained on Matrigel- or iMatrix 511-coated plates in mTeSR plus medium according to a previously published method. For differentiation, hPSCs were dissociated with 1 mM EDTA and seeded onto iMatrix 511-coated, 24-well plates at a cell density between 10,000 and 80,000 cells/cm^2 in mTeSR plus medium with 5 μM Y27632 for 24 hours (day −1). At day 0, cells were treated with 6 μM CHIR99021 (CHIR) in DMEM medium supplemented with 100 μg/mL ascorbic acid (DMEM/Vc), followed by a medium change with LasR basal medium at day 1, day 2, and day 3 and the addition of 50 ng/ml VEGF to the medium from day 2 to day 4. At day 4, medium was replaced by Stemline II medium (Sigma) supplemented with 10 μM SB431542. After 2 days, SB431542-containing medium was aspirated, and cells were maintained in Stemline II medium with 50 ng/mL SCF and FLT3L. At day 9 and day 12, the medium was aspirated and changed to Stemline II medium containing 50 ng/mL SCF and FLT3L and 25 ng/mL GM-CSF. At day 15, floating cells were gently harvested and used for terminal neutrophil differentiation. The floating cells were cultured in Stemline II medium supplemented with GlutaMAX 100X, ExCyte (0.2%), human G-CSF (150 ng/mL), and Am580 retinoic acid agonist (2.5 μM). After three days, the same medium with all components and cytokines was added to the top of the existing culture. […]

mammals = settings: cited from earlier work
invertebrates = settings: cited from earlier work
[1] = system: glioblastomas and other tumors; settings: cited from earlier work
[2] = system: neutrophil extracellular trap (NET) formation; settings: 3 μg/ml or more
U87MG cells = experiment: Neutrophil infiltration of 3D tumor spheroids; type: cell-based, human; settings: pre-treating neutrophils
Experimental: A 3-D biomimetic GBM model was constructed to mimic an in vivo tumor niche-like microenvironment with a dense, extracellular matrix and heterogeneous tumor cell subtypes.
Neutrophil infiltration of 3D tumor spheroids. The 3D tumor spheroids were obtained using the hanging drop method. Briefly, U87MG cells were suspended in MEM medium with 10% FBS and 0.3% methylcellulose at 2×10^6 cells/mL and deposited onto an inverted lid of 96-well plate as an individual drop using a 20 μL pipettor. The cover lid was then placed back onto the PBS-filled bottom chamber and incubated at 37° C. and 5% CO2. The hanging drops were monitored daily until cell aggregates were formed in ˜5-7 days. Each cell aggregate was transferred to a single well of a 24-well plate for the substream analysis. To assess the tumor penetration capability of CLTX T-CAR neutrophils, 2×10^5 neutrophils/well were added to the wells of 24-well plate and incubated with the tumor spheroids. After co-incubation for 24 hours, the tumor spheroids were fixed and stained for CD45 and DAPI. For the cytotoxicity analysis, the mixture of neutrophils and tumor spheroids were stained with 1 μM Calcein-AM and 1 μM propidium iodide (PI). The stained cells were then imaged using a Leica DMi-8 fluorescent microscope.

tumor cells = experiment: Phagocytosis of tumor cells by neutrophils with inhibitor; type: cell-based; settings: 5 μM
[3] = system: day 15 myeloid progenitors; experiment: Myeloid progenitor monocyte/macrophage potential by flow cytometry; type: cell-based, human; settings: compared to GM-CSF
Experimental: Differentiated cells were gently pipetted and filtered through a 70 or 100 μm strainer sitting on a 50 mL tube. The cells were then pelleted by centrifugation and washed three times with PBS−/− solution containing 1% BSA. The cells were stained with appropriately conjugated antibodies for 25 min at room temperature in the dark and analyzed in an Accuri C6 plus cytometer (Beckton Dickinson) after washing with BSA-containing PBS−/− solution. Flow Jo software was used to process the collected flow data.
Flow cytometry analysis. Differentiated cells were gently pipetted and filtered through a 70 or 100 μm strainer sitting on a 50 mL tube. The cells were then pelleted by centrifugation and washed twice with PBS−/− solution containing 1% bovine serum albumin (BSA). The cells were stained with appropriate conjugated antibodies for 25 min at room temperature in dark, and analyzed in an Accuri C6 plus cytometer (Beckton Dickinson) after washing with BSA-containing PBS−/− solution. FlowJo software was used to process the collected flow data.

## CC(=O)N[C@@H](CS)C(=O)O [N-acetylcysteine]
glioblastoma
  tumor lysis by CAR neutrophils: significantly blocked
  glioblastoma viability: higher viability

## NC(=O)c1ccc(-c2nc(-c3ccc4c(c3)OCO4)c(-c3ccccn3)[nH]2)cc1 [SB431542]
TGFβ
  endothelial-to-hematopoietic transition (generation of CD45+CD43+ HSPCs): promoted endothelial-to-hematopoietic transition; also recorded: promoted EHT process

## chlorotoxin [CLTX]
mammals
  toxicity to mammals: nontoxic
invertebrates
  toxicity to invertebrates: highly toxic
[1]
  tumor binding: binds selectively

## CC(C)c1cccc(C(C)C)c1O [propofol]
glioblastoma
  tumor lysis by CAR neutrophils: significantly blocked
[2]
  NET formation in neutrophils: significant decrease

## C=C1[C@@H](C)[C@H]2[C@H](Cc3ccccc3)NC(=O)[C@]23[C@H](OC(C)=O)/C=C/[C@@](C)(O)C(=O)[C@@H](C)C/C=C/[C@H]3[C@@H]1O [cytochalasin D]
U87MG cells
  effect on tumor cytotoxicity of CAR-neutrophils: significantly reduced
  effect on tumor-infiltrating activity of CAR-neutrophils: significantly reduced
Tumor cells
  phagocytosis of tumor cells by neutrophils: significantly reduced
glioblastoma
  tumor lysis by CAR neutrophils: significantly blocked
  glioblastoma viability: higher viability

B1: soluble MMP2: soluble matrix metallopeptidase 2 used to pre-treat neutrophils (protein, UniProt P08253 110-660, looked up)
72 kDa type IV collagenase: YNFFPRKPKWDKNQITYRIIGYTPDLDPETVDDAFARAFQVWSDVTPLRFSRIHDGEADIMINFGRWEHGDGYPFDGKDGLLAHAFAPGTGVGGDSHFDDDELWTLGEGQVVRVKYGNADGEYCKFPFLFNGKEYNSCTDTGRSDGFLWCSTTYNFEKDGKYGFCPHEALFTMGGNAEGQPCKFPFRFQGTSYDSCTTEGRTDGYRWCGTTEDYDRDKKYGFCPETAMSTVGGNSEGAPCVFPFTFLGNKYESCTSAGRSDGKMWCATTANYDDDRKWGFCPDQGYSLFLVAAHEFGHAMGLEHSQDPGALMAPIYTYTKNFRLSQDDIKGIQELYGASPDIDLGTGPTPTLGPVTPEICKQDIVFDGIAQIRGEIFFFKDRFIWRTVTPRDKPMGPLLVATFWPELPEKIDAVYEAPQEEKAVFFAGNEYWIYSASTLERGYPKPLTSLGLPPDVQRVDAAFNWSKNKKTYIFAGDKFWRYNEVKKKMDPGFPKLIADAWNAIPDNLDAVVDLQGGGHSYFFKGAYYLKLENQSLKSVKFGSIKSDWLGC
U87MG cells
  effect on tumor cytotoxicity of CAR-neutrophils: significantly reduced
  effect on tumor-infiltrating activity of CAR-neutrophils: significantly reduced

B2: G-CSF: recombinant human granulocyte colony-stimulating factor (protein, UniProt P09919 31-207, looked up)
Granulocyte …: TPLGPASSLPQSFLLKCLEQVRKIQGDGAALQEKLVSECATYKLCHPEELVLLGHSLGIPWAPLSSCPSQALQLAGCLSQLHSGLFLYQGLLQALEGISPELGPTLDTLQLDVADFATTIWQQMEELGMAPALQPTQGAMPAFASAFQRRAGGVLVASHLQSFLEVSYRVLRHLAQP
[3]
  number of CD14+ monocytes/macrophages: significantly decreased

Source: patent US20240277841A2, “HUMAN CHIMERIC ANTIGEN RECEPTOR NEUTROPHILS, COMPOSITIONS, KITS AND METHODS OF USE” (Purdue Research Foundation, priority 2020, published 2024)
